Experiments:
Settings in all cases: incubation time: 72 h
MDA-MB-231 [1] = assay: drug sensitivity score (DSS), CellTox Green (DSS (AUC-based score)); higher = stronger drug effect (viability inhibition or cytotoxicity); extreme values may be limits of the assay
Outline: (§1)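 After 72 h of incubation in 384-well plates with compound at 5 concentrations (10-fold steps, 10,000-fold range set per compound), breast cancer cell lines seeded in 20 µl suspension were read first for CellTox Green fluorescence at 485/520 nm. CellTiter-Glo luminescence was measured next, after 10 min at room temperature. Normalisation on each plate used 0.1 % DMSO and a positive kill control, and the drug sensitivity score was computed from the area under the fitted dose-response curve.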

DU-4475 = assay: as above
Outline: as §1

CAL-148 [2] = assay: as above
Outline: as §1

Hs578T = assay: as above
Outline: as §1

BT-474 = assay: as above
Outline: as §1

MFM-223 [3] = assay: as above
Outline: as §1

HDQ-P1 [4] = assay: as above
Outline: as §1

CAL-120 [5] = assay: as above
Outline: as §1

HCC1599 = assay: as above
Outline: as §1

HCC1937 = assay: as above
Outline: as §1

CAL-51 [6] = assay: as above
Outline: as §1

MDA-MB-436 = assay: as above
Outline: as §1

CAL-85-1 [7] = assay: as above
Outline: as §1

MDA-MB-231 [8] = assay: normalised viability (% of control), CellTiter-Blue; higher = more viable cells (about 100 = DMSO control)
Outline: (§2)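 Breast cancer cell lines in 20 µl suspension were seeded onto 384-well plates pre-loaded with compound dissolved in 5 µl medium, then incubated 72 h. CellTiter-Blue reagent (2.5 µl) was added for 2 h at 37 °C and fluorescence read at 560/590 nm. Each plate was normalised to vehicle (100) and a positive kill control (0), with Z'-factor quality control. The value is normalised viability at one listed concentration of the series.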

CAL-148 [9] = assay: as above
Outline: as §2

SK-BR-3 = assay: as above
Outline: as §2

MFM-223 [10] = assay: as above
Outline: as §2

HDQ-P1 [11] = assay: as above
Outline: as §2

CAL-120 [12] = assay: as above
Outline: as §2

BT-549 [13] = assay: as above
Outline: as §2

MDA-MB-468 = assay: as above
Outline: as §2

CAL-51 [14] = assay: as above
Outline: as §2

CAL-85-1 [15] = assay: as above
Outline: as §2

HCC1143 = assay: drug sensitivity score (DSS), CellTox Green (DSS (AUC-based score)); higher = stronger drug effect (viability inhibition or cytotoxicity); extreme values may be limits of the assay
Outline: as §1

BT-549 [16] = assay: as above
Outline: as §1

## CN(C)C(=N)NC(=N)N [Metformin]
MDA-MB-231 [1]
  drug sensitivity score: 0
DU-4475
  drug sensitivity score: 0
CAL-148 [2]
  drug sensitivity score: 0
Hs578T
  drug sensitivity score: 4.84
BT-474
  drug sensitivity score: 0
MFM-223 [3]
  drug sensitivity score: 0
HDQ-P1 [4]
  drug sensitivity score: 0
CAL-120 [5]
  drug sensitivity score: 0
HCC1599
  drug sensitivity score: 1.75
HCC1937
  drug sensitivity score: 0
CAL-51 [6]
  drug sensitivity score: 8.43
MDA-MB-436
  drug sensitivity score: 0
CAL-85-1 [7]
  drug sensitivity score: 0

## COc1c2occc2cc2ccc(=O)oc12 [Methoxsalen]
MDA-MB-231 [8]; 10 nM
  normalised viability: 102%
MDA-MB-231 [8]; 1000 nM
  normalised viability: 99.1%
MDA-MB-231 [8]; 10000 nM
  normalised viability: 112%
CAL-148 [9]; 3 nM
  normalised viability: 98.7%
CAL-148 [9]; 30 nM
  normalised viability: 95.8%
CAL-148 [9]; 100 nM
  normalised viability: 100%
SK-BR-3; 10 nM
  normalised viability: 104%
SK-BR-3; 1000 nM
  normalised viability: 127%
SK-BR-3; 10000 nM
  normalised viability: 104%
MFM-223 [10]; 10 nM
  normalised viability: 100%
MFM-223 [10]; 1000 nM
  normalised viability: 101%
MFM-223 [10]; 10000 nM
  normalised viability: 50.5%
HDQ-P1 [11]; 3 nM
  normalised viability: 115%
HDQ-P1 [11]; 30 nM
  normalised viability: 104%
HDQ-P1 [11]; 100 nM
  normalised viability: 105%
CAL-120 [12]; 10 nM
  normalised viability: 99.1%
CAL-120 [12]; 1000 nM
  normalised viability: 101%
CAL-120 [12]; 10000 nM
  normalised viability: 104%
BT-549 [13]; 10 nM
  normalised viability: 90.9%
BT-549 [13]; 1000 nM
  normalised viability: 104%
BT-549 [13]; 10000 nM
  normalised viability: 82.9%
MDA-MB-468; 10 nM
  normalised viability: 107%
MDA-MB-468; 1000 nM
  normalised viability: 112%
MDA-MB-468; 10000 nM
  normalised viability: 105%
CAL-51 [14]; 3 nM
  normalised viability: 109%
CAL-51 [14]; 30 nM
  normalised viability: 109%
CAL-51 [14]; 100 nM
  normalised viability: 104%
CAL-85-1 [15]; 3 nM
  normalised viability: 92.9%
CAL-85-1 [15]; 30 nM
  normalised viability: 92.6%
CAL-85-1 [15]; 100 nM
  normalised viability: 92.5%

## CO[C@@H]1[C@H](N(C)C(=O)c2ccccc2)C[C@H]2O[C@]1(C)n1c3ccccc3c3c4c(c5c6ccccc6n2c5c31)C(=O)NC4 [Midostaurin]
MDA-MB-231 [1]
  drug sensitivity score: 7.87
DU-4475
  drug sensitivity score: 0
Hs578T
  drug sensitivity score: 11.5
BT-474
  drug sensitivity score: 0.973
MFM-223 [3]
  drug sensitivity score: 0
HDQ-P1 [4]
  drug sensitivity score: 1.96
HCC1143
  drug sensitivity score: 0
CAL-120 [5]
  drug sensitivity score: 3.96
BT-549 [16]
  drug sensitivity score: 12.6
HCC1599
  drug sensitivity score: 0
HCC1937
  drug sensitivity score: 0
CAL-51 [6]
  drug sensitivity score: 29.9
MDA-MB-436
  drug sensitivity score: 0
CAL-85-1 [7]
  drug sensitivity score: 0
MDA-MB-231 [8]; 10 nM
  normalised viability: 92.8%
MDA-MB-231 [8]; 1000 nM
  normalised viability: 49.1%
MDA-MB-231 [8]; 10000 nM
  normalised viability: 42.4%
CAL-148 [9]; 3 nM
  normalised viability: 115%
CAL-148 [9]; 30 nM
  normalised viability: 105%
CAL-148 [9]; 100 nM
  normalised viability: 129%
SK-BR-3; 10 nM
  normalised viability: 94%
SK-BR-3; 1000 nM
  normalised viability: 77.4%
SK-BR-3; 10000 nM
  normalised viability: 39.5%
MFM-223 [10]; 10 nM
  normalised viability: 96.3%
MFM-223 [10]; 1000 nM
  normalised viability: 74.4%
MFM-223 [10]; 10000 nM
  normalised viability: 64.2%
HDQ-P1 [11]; 3 nM
  normalised viability: 84.7%
HDQ-P1 [11]; 30 nM
  normalised viability: 95.7%
HDQ-P1 [11]; 100 nM
  normalised viability: 96.8%
CAL-120 [12]; 10 nM
  normalised viability: 126%
CAL-120 [12]; 1000 nM
  normalised viability: 55.4%
CAL-120 [12]; 10000 nM
  normalised viability: 44.9%
BT-549 [13]; 10 nM
  normalised viability: 80.4%
BT-549 [13]; 1000 nM
  normalised viability: 59.5%
BT-549 [13]; 10000 nM
  normalised viability: 18.7%
MDA-MB-468; 10 nM
  normalised viability: 98.5%
MDA-MB-468; 1000 nM
  normalised viability: 46.6%
MDA-MB-468; 10000 nM
  normalised viability: 41.4%
CAL-51 [14]; 3 nM
  normalised viability: 97.5%
CAL-51 [14]; 30 nM
  normalised viability: 87.9%
CAL-51 [14]; 100 nM
  normalised viability: 82.4%
CAL-85-1 [15]; 3 nM
  normalised viability: 112%
CAL-85-1 [15]; 30 nM
  normalised viability: 111%
CAL-85-1 [15]; 100 nM
  normalised viability: 103%

## C=CCN(/C=C1/C(=O)O[C@H](COC)[C@@]2(C)C1=C(O)C(=O)C1=C2[C@H](OC(C)=O)C[C@]2(C)C(=O)CC[C@@H]12)CC=C [PX-866]
MDA-MB-231 [8]; 10 nM
  normalised viability: 92.9%
MDA-MB-231 [8]; 1000 nM
  normalised viability: 72.6%
MDA-MB-231 [8]; 10000 nM
  normalised viability: 50%
CAL-148 [9]; 3 nM
  normalised viability: 97.2%
CAL-148 [9]; 30 nM
  normalised viability: 105%
CAL-148 [9]; 100 nM
  normalised viability: 107%
SK-BR-3; 10 nM
  normalised viability: 109%
SK-BR-3; 1000 nM
  normalised viability: 61.7%
SK-BR-3; 10000 nM
  normalised viability: 28.5%
MFM-223 [10]; 10 nM
  normalised viability: 86.5%
MFM-223 [10]; 1000 nM
  normalised viability: 96.9%
MFM-223 [10]; 10000 nM
  normalised viability: 95.9%
HDQ-P1 [11]; 3 nM
  normalised viability: 113%
HDQ-P1 [11]; 30 nM
  normalised viability: 128%
HDQ-P1 [11]; 100 nM
  normalised viability: 114%
CAL-120 [12]; 10 nM
  normalised viability: 94.4%
CAL-120 [12]; 1000 nM
  normalised viability: 85.9%
CAL-120 [12]; 10000 nM
  normalised viability: 71.3%
BT-549 [13]; 10 nM
  normalised viability: 87.8%
BT-549 [13]; 1000 nM
  normalised viability: 81.9%
BT-549 [13]; 10000 nM
  normalised viability: 57%
MDA-MB-468; 10 nM
  normalised viability: 112%
MDA-MB-468; 1000 nM
  normalised viability: 62.7%
MDA-MB-468; 10000 nM
  normalised viability: 21.9%
CAL-51 [14]; 3 nM
  normalised viability: 118%
CAL-51 [14]; 30 nM
  normalised viability: 107%
CAL-51 [14]; 100 nM
  normalised viability: 103%
CAL-85-1 [15]; 3 nM
  normalised viability: 111%
CAL-85-1 [15]; 30 nM
  normalised viability: 97.4%
CAL-85-1 [15]; 100 nM
  normalised viability: 102%

## CC[C@H](CO)Nc1nc(NCc2ccccc2)c2ncn(C(C)C)c2n1 [Roscovitine]
MDA-MB-231 [8]; 10 nM
  normalised viability: 88%
MDA-MB-231 [8]; 1000 nM
  normalised viability: 96.5%
MDA-MB-231 [8]; 10000 nM
  normalised viability: 76.6%
CAL-148 [9]; 3 nM
  normalised viability: 77.4%
CAL-148 [9]; 30 nM
  normalised viability: 85.8%
CAL-148 [9]; 100 nM
  normalised viability: 83.5%
SK-BR-3; 10 nM
  normalised viability: 90.3%
SK-BR-3; 1000 nM
  normalised viability: 104%
SK-BR-3; 10000 nM
  normalised viability: 87%
MFM-223 [10]; 10 nM
  normalised viability: 92.5%
MFM-223 [10]; 1000 nM
  normalised viability: 91.5%
MFM-223 [10]; 10000 nM
  normalised viability: 85.1%
HDQ-P1 [11]; 3 nM
  normalised viability: 101%
HDQ-P1 [11]; 30 nM
  normalised viability: 103%
HDQ-P1 [11]; 100 nM
  normalised viability: 98.3%
CAL-120 [12]; 10 nM
  normalised viability: 82.7%
CAL-120 [12]; 1000 nM
  normalised viability: 86.1%
CAL-120 [12]; 10000 nM
  normalised viability: 76.3%
BT-549 [13]; 10 nM
  normalised viability: 83.8%
BT-549 [13]; 1000 nM
  normalised viability: 84.4%
BT-549 [13]; 10000 nM
  normalised viability: 76.4%
MDA-MB-468; 10 nM
  normalised viability: 93%
MDA-MB-468; 1000 nM
  normalised viability: 106%
MDA-MB-468; 10000 nM
  normalised viability: 83.7%
CAL-51 [14]; 3 nM
  normalised viability: 111%
CAL-51 [14]; 30 nM
  normalised viability: 105%
CAL-51 [14]; 100 nM
  normalised viability: 105%
CAL-85-1 [15]; 3 nM
  normalised viability: 93.3%
CAL-85-1 [15]; 30 nM
  normalised viability: 88.8%
CAL-85-1 [15]; 100 nM
  normalised viability: 90.8%

## CC(C)n1cnc2c(NCCc3ccc(O)cc3)nc(-c3csc4ccccc34)nc21 [StemRegenin 1]
MDA-MB-231 [1]
  drug sensitivity score: 0
DU-4475
  drug sensitivity score: 0
CAL-148 [2]
  drug sensitivity score: 0
BT-474
  drug sensitivity score: 1.03
MFM-223 [3]
  drug sensitivity score: 5.31
HDQ-P1 [4]
  drug sensitivity score: 0
HCC1143
  drug sensitivity score: 0
CAL-120 [5]
  drug sensitivity score: 0
BT-549 [16]
  drug sensitivity score: 0
HCC1599
  drug sensitivity score: 0
HCC1937
  drug sensitivity score: 0
CAL-51 [6]
  drug sensitivity score: 0
MDA-MB-436
  drug sensitivity score: 0
CAL-85-1 [7]
  drug sensitivity score: 0

Reference: the supplement of paper PMC4862054
